Experiment [1] has as its system CCRF-CEM. The experiment is described as follows: Cytotoxicity against human CCRF-CEM cells assessed as cell growth at 10^-4 M after 48 hrs by SRB assay. It counts as functional. The settings on record: read-out: Activity.
The nature of experiment [2]: Cytotoxicity against human LOXIMVI cells assessed as cell growth at 10^-5 M after 48 hrs by SRB assay. It counts as functional. Conditions: LOX IMVI, read-out: Activity.
A short description of experiment [3]: Cytotoxicity against human DU145 cells assessed as cell growth at 10^-6 M after 48 hrs by SRB assay. The format is functional. The settings on record: DU-145, 48 h, read-out: Activity.
The nature of experiment [4]: Cytotoxicity against human OVCAR4 cells assessed as cell growth at 10^-5 M after 48 hrs by SRB assay. It counts as functional. The settings on record: OVCAR-4, 48 h, read-out: Activity.
The subject of experiment [5] is NCI-H23. The experiment is described as follows: Cytotoxicity against human NCI-H23 cells assessed as cell growth at 10^-5 M after 48 hrs by SRB assay. It counts as functional. The settings on record: NCI-H23, 48 h, read-out: Activity.
Experiment [6] relates to A549. The experiment is described as follows: Cytotoxicity against human A549 cells assessed as cell growth at 10^-5 M after 48 hrs by SRB assay. The format is functional. The settings on record: A549, 48 h, read-out: Activity.
The test system of experiment [7] is Malme-3M. The experiment in a line: Cytotoxicity against human MALME-3M cells assessed as cell growth at 10^-6 M after 48 hrs by SRB assay. It counts as functional. The settings on record: read-out: Activity.
Experiment [8] concerns NCI-H226. The experiment is described as follows: Cytotoxicity against human NCI-H226 cells assessed as cell growth at 10^-8 M after 48 hrs by SRB assay. It counts as functional. The settings on record: NCI-H226, 48 h, read-out: Activity.
Experiment [9] is described as follows: Cytotoxicity against human SKOV3 cells assessed as cell growth at 10^-4 M after 48 hrs by SRB assay. It counts as functional. The settings on record: SK-OV-3, 48 h, read-out: Activity.
Experiment [10] deals with HT-29. The experiment is described as follows: Cytotoxicity against human HT-29 cells assessed as cell growth at 10^-6 M after 48 hrs by SRB assay. Conditions: HT-29, 48 h, read-out: Activity. The format is functional.
In experiment [11] the test system is NCI-H23. The experiment in a line: Cytotoxicity against human NCI-H23 cells assessed as cell growth at 10^-7 M after 48 hrs by SRB assay. The format is functional. The settings on record: NCI-H23, 48 h, read-out: Activity.
Experiment [12] is described as follows: Cytotoxicity against human IGROV1 cells assessed as cell growth at 10^-5 M after 48 hrs by SRB assay. The format is functional. Conditions: IGROV-1, 48 h, read-out: Activity.
Experiment [13] concerns U-251. The experiment in a line: Cytotoxicity against human U251 cells assessed as cell growth at 10^-5 M after 48 hrs by SRB assay. The format is functional. The settings on record: U-251, 48 h, read-out: Activity.
Experiment [14] relates to NCI-H460. The experiment is described as follows: Cytotoxicity against human NCI-H460 cells assessed as cell growth at 10^-7 M after 48 hrs by SRB assay. The settings on record: NCI-H460, 48 h, read-out: Activity. The format is functional.
Experiment [15] can be described thus: Cytotoxicity against human HCT15 cells assessed as cell growth at 10^-6 M after 48 hrs by SRB assay. It counts as functional. The settings on record: HCT-15, 48 h, read-out: Activity.
Experiment [16] deals with KM12. The experiment is described as follows: Cytotoxicity against human KM12 cells assessed as cell growth at 10^-5 M after 48 hrs by SRB assay. It counts as functional. Conditions: KM12, 48 h, read-out: Activity.
Experiment [17] can be described thus: Cytotoxicity against human SF268 cells assessed as cell growth at 10^-4 M after 48 hrs by SRB assay. The format is functional. Conditions: SF-268, 48 h, read-out: Activity.
The target in experiment [18] is Estrogen receptor beta (Homo sapiens, UniProt Q92731).
Chain of Estrogen receptor beta (Q92731 whole entry): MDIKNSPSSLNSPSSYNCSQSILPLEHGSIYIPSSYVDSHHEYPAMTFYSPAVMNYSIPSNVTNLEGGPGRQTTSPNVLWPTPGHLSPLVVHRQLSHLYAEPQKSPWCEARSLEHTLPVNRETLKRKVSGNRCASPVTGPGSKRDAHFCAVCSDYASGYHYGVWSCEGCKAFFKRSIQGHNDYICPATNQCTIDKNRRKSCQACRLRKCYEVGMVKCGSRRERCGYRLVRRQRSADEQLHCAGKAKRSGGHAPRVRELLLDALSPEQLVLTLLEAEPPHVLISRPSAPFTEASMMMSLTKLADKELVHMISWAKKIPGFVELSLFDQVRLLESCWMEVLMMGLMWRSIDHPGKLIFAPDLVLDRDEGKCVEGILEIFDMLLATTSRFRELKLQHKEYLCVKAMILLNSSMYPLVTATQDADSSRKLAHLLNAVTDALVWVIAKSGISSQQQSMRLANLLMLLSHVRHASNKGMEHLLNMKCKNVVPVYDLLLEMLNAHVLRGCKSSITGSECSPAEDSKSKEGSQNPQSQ
Description: Displacement of [3H]-E2 from human ER-beta incubated for 16 to 20 hrs by liquid scintillation counting analysis
Experiment [19] has as its system SK-MEL-5. The experiment is described as follows: Cytotoxicity against human SK-MEL-5 cells assessed as cell growth at 10^-5 M after 48 hrs by SRB assay. It counts as functional. Conditions: SK-MEL-5, 48 h, read-out: Activity.
A short description of experiment [20]: Cytotoxicity against human HCT116 cells assessed as cell growth at 10^-6 M after 48 hrs by SRB assay. The format is functional. The settings on record: HCT-116, 48 h, read-out: Activity.
In experiment [21] the test system is MCF7. The experiment in a line: Cytotoxicity against human MCF7 cells assessed as cell growth at 10^-4 M after 48 hrs by SRB assay. Conditions: MCF7, 48 h, read-out: Activity. The format is functional.
A short description of experiment [22]: Cytotoxicity against human COLO205 cells assessed as cell growth at 10^-5 M after 48 hrs by SRB assay. Conditions: COLO 205, 48 h, read-out: Activity. It counts as functional.
Experiment [23] is described as follows: Cytotoxicity against human HCC2998 cells assessed as cell growth at 10^-6 M after 48 hrs by SRB assay. It counts as functional. The settings on record: HCC 2998, 48 h, read-out: Activity.
Experiment [24] can be described thus: Cytotoxicity against human HOP62 cells assessed as cell growth at 10^-4 M after 48 hrs by SRB assay. It counts as functional. Conditions: HOP-62, 48 h, read-out: Activity.
Experiment [25] can be described thus: Cytotoxicity against human HL-60(TB) cells assessed as cell growth at 10^-5 M after 48 hrs by SRB assay. The format is functional. Conditions: HL-60, 48 h, read-out: Activity.
A short description of experiment [26]: Cytotoxicity against human OVCAR4 cells assessed as cell growth at 10^-4 M after 48 hrs by SRB assay. It counts as functional. The settings on record: OVCAR-4, 48 h, read-out: Activity.
Experiment [27] in a line: Cytotoxicity against human HOP62 cells assessed as cell growth at 10^-8 M after 48 hrs by SRB assay. The format is functional. The settings on record: HOP-62, 48 h, read-out: Activity.
Experiment [28] has as its system 786-0. The experiment is described as follows: Cytotoxicity against human 786-0 cells assessed as cell growth at 0.5 uM after 48 hrs by SRB assay. It counts as functional. Conditions: 786-0, 48 h, read-out: Activity.
Experiment [29] has as its system NCI-H460. The experiment is described as follows: Cytotoxicity against human NCI-H460 cells assessed as cell growth at 5 nM after 48 hrs by SRB assay. It counts as functional. Conditions: NCI-H460, 48 h, read-out: Activity.
Experiment [30] deals with HT-29. The experiment in a line: Cytotoxicity against human HT-29 cells assessed as cell growth at 5 uM after 48 hrs by SRB assay. It counts as functional. The settings on record: HT-29, 48 h, read-out: Activity.
Experiment [31] can be described thus: Cytotoxicity against human HCT116 cells assessed as cell growth at 5 nM after 48 hrs by SRB assay. It counts as functional. Conditions: HCT-116, 48 h, read-out: Activity.
Experiment [32] concerns SK-MEL-5. The experiment is described as follows: Cytotoxicity against human SK-MEL-5 cells assessed as cell growth at 5 uM after 48 hrs by SRB assay. It counts as functional. The settings on record: SK-MEL-5, 48 h, read-out: Activity.
Experiment [33] can be described thus: Cytotoxicity against human TK10 cells assessed as cell growth at 0.5 uM after 48 hrs by SRB assay. The format is functional. Conditions: TK-10, 48 h, read-out: Activity.
A short description of experiment [34]: Cytotoxicity against human HCT15 cells assessed as cell growth at 0.5 uM after 48 hrs by SRB assay. Conditions: HCT-15, 48 h, read-out: Activity. It counts as functional.
Experiment [35] in a line: Cytotoxicity against human BT549 cells assessed as cell growth at 50 uM after 48 hrs by SRB assay. The format is functional. The settings on record: BT-549, 48 h, read-out: Activity.
Experiment [36] concerns A498. The experiment is described as follows: Cytotoxicity against human A498 cells assessed as cell growth at 5 nM after 48 hrs by SRB assay. It counts as functional. Conditions: A498, 48 h, read-out: Activity.
Experiment [37] deals with MDA-MB-468. The experiment is described as follows: Cytotoxicity against human MDA-MB-468 cells assessed as cell growth at 5 nM after 48 hrs by SRB assay. The format is functional. Conditions: MDA-MB-468, 48 h, read-out: Activity.
The test system of experiment [38] is M14. The experiment in a line: Cytotoxicity against human M14 cells assessed as cell growth at 5 uM after 48 hrs by SRB assay. Conditions: M14, 48 h, read-out: Activity. It counts as functional.
A short description of experiment [39]: Cytotoxicity against human UACC257 cells assessed as cell growth at 5 uM after 48 hrs by SRB assay. The format is functional. Conditions: UACC-257, 48 h, read-out: Activity.
Experiment [40] can be described thus: Cytotoxicity against human MOLT4 cells assessed as cell growth at 5 uM after 48 hrs by SRB assay. It counts as functional. Conditions: MOLT-4, 48 h, read-out: Activity.

Consider `C/C(=C(/c1ccc(O)cc1)c1ccc(OCCN2CCCC2)cc1)c1ccccc1`, for which the growth at 100 µM is -71% in experiment [1]; -98% in experiment [9]; -80% in experiment [17]; -66% in experiment [21]; -86% in [24]; -96% in [26]. Moreover, the growth at 10 µM was -86% in experiment [2]; 31% in [4]; 29% in experiment [5]; 4% in experiment [6]; 41% in experiment [12]; -33% in experiment [13]. For the same molecule, the growth at 10 µM was 12% in experiment [16], -99% in [19], -79% in experiment [22] and -39% in [25]. In addition, the growth at 1 µM was determined as 94% in experiment [3]; 88% in experiment [7]; 67% in experiment [10]; 81% in experiment [15]; 93% in [20]; 94% in experiment [23]. The growth at 0.01 µM in experiment [8] was found to be 91%; in experiment [27] it was 90%. Moreover, the growth at 0.1 µM amounted to 94% in experiment [11] and 106% in experiment [14]. Further, half-maximal inhibition in [18] (IC50) was put at 40 nM.
Consider `CCCCCCCCCC(=O)Oc1ccc(/C(=C(/C)c2ccccc2)c2ccc(OCCN3CCCC3)cc2)cc1`, for which the growth at 0.5 µM in experiment [28] was found to be 79%; in experiment [33], 90%; in experiment [34], 58%. Besides, the growth at 0.005 µM is 102% in experiment [29], 98% in [31], 61% in experiment [36] and 96% in [37]. The growth at 5 µM in [30] amounted to 58%; in [32], 90%; in [38], 87%; in [39], 101%; in experiment [40], 82%. In addition, the growth at 50 µM in experiment [35] was -76%.
